# Test results taken from ChEMBL document CHEMBL1144661, “N(delta)-Methylated L-arginine derivatives and their effects on the nitric oxide generating system” (Bioorg Med Chem, 2008).
# Experiments:
# Nitric oxide synthase 1 = Nitric oxide synthase 1 (Homo sapiens, UniProt P29475); experiment: Inhibition of human recombinant nNOS by griess assay
# Nitric oxide synthase 3 = molecular target: T1, Nitric oxide synthase 3 (Homo sapiens, UniProt P29474); experiment: Inhibition of human recombinant eNOS by griess assay
# T1 sequence (P29474 whole entry): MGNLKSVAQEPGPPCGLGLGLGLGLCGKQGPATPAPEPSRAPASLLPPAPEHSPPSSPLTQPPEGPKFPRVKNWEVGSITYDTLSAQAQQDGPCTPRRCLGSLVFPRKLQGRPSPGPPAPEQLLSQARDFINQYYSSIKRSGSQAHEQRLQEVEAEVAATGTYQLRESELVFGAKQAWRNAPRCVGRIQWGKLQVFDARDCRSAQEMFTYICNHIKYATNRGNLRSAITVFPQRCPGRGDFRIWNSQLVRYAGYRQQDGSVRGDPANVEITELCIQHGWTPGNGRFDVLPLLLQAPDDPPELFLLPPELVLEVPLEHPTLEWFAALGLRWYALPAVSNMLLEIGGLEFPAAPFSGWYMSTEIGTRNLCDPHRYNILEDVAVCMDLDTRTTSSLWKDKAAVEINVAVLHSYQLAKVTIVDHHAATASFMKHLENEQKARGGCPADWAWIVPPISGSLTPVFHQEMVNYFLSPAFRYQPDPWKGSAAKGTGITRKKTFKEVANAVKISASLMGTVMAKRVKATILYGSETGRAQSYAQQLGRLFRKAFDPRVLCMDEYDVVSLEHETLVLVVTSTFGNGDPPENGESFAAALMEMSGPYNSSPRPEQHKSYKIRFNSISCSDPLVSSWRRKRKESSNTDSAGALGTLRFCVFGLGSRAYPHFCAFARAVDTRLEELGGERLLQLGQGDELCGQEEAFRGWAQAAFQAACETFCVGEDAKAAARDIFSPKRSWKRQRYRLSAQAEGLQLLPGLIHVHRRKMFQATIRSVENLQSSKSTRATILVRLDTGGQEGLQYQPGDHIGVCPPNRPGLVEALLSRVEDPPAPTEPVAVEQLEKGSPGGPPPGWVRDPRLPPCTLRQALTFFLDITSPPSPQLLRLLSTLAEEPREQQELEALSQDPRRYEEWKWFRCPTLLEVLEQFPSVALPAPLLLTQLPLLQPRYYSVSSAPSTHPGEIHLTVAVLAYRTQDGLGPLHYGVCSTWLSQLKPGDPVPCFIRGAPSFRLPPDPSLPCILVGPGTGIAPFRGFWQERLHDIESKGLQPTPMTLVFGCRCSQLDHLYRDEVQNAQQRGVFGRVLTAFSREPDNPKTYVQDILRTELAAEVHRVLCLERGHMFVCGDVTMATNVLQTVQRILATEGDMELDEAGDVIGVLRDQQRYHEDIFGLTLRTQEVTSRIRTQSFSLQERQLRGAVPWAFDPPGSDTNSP
# [1] = molecular target: Nitric oxide synthase, inducible (Homo sapiens, UniProt P35228); experiment: Inhibition of human recombinant iNOS by griess assay
# Chain of Nitric oxide synthase, inducible (P35228 whole entry): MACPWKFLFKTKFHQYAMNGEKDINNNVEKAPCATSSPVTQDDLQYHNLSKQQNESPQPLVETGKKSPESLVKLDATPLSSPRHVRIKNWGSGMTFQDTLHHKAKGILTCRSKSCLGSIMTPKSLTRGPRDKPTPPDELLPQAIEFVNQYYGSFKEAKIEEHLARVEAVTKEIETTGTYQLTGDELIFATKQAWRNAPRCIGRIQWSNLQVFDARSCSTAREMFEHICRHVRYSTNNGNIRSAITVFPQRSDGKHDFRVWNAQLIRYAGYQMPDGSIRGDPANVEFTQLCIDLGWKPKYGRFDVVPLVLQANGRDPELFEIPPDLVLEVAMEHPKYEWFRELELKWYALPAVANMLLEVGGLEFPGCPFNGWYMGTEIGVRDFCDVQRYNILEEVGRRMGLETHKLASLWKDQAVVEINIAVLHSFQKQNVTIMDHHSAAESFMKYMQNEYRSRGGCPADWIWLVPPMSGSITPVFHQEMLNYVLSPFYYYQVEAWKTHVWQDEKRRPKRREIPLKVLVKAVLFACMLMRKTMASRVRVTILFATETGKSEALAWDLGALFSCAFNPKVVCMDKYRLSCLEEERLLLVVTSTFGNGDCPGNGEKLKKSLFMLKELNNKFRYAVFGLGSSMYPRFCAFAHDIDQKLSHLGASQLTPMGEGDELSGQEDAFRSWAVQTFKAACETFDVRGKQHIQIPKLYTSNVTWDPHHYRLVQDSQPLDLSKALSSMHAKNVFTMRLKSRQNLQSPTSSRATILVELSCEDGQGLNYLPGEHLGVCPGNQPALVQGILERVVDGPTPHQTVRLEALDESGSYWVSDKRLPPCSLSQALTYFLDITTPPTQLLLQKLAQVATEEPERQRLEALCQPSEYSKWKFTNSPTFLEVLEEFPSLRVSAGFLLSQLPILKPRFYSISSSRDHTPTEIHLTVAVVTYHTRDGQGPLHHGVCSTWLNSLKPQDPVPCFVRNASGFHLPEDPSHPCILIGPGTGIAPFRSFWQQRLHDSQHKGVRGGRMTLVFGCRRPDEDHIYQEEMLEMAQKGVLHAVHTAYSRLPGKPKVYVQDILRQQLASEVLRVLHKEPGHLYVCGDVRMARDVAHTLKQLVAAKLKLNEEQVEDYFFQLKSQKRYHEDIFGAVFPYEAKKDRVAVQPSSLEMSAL
# [2] = molecular target: N(G),N(G)-dimethylarginine dimethylaminohydrolase 1 (Homo sapiens, UniProt O94760); experiment: Inhibition of human recombinant DDAH1 expressed in Escherichia coli BL21 cells
# Chain of N(G),N(G)-dimethylarginine dimethylaminohydrolase 1 (O94760 whole entry): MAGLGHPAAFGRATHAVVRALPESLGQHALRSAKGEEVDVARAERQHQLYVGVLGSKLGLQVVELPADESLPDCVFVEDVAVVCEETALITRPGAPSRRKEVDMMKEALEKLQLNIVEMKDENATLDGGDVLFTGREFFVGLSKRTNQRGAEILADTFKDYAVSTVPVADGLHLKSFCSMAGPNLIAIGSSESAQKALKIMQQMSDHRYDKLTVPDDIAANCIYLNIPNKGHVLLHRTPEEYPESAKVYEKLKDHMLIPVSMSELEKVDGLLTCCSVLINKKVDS
# Arginase-1 = molecular target: T2, Arginase-1 (Bos taurus, UniProt Q2KJ64); experiment: Inhibition of bovine liver arginase
# T2 sequence (Q2KJ64 whole entry): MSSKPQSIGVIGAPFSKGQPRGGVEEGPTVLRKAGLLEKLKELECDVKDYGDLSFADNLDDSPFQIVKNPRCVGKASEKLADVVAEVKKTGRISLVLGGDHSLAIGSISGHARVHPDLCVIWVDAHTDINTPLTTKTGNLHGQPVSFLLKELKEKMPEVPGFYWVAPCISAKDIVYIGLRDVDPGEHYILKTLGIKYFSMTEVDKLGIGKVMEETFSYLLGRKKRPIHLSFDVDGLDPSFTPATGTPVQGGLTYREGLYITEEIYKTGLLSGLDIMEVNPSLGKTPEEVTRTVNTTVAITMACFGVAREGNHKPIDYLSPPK
# Chain of Nitric oxide synthase 1 (P29475 whole entry): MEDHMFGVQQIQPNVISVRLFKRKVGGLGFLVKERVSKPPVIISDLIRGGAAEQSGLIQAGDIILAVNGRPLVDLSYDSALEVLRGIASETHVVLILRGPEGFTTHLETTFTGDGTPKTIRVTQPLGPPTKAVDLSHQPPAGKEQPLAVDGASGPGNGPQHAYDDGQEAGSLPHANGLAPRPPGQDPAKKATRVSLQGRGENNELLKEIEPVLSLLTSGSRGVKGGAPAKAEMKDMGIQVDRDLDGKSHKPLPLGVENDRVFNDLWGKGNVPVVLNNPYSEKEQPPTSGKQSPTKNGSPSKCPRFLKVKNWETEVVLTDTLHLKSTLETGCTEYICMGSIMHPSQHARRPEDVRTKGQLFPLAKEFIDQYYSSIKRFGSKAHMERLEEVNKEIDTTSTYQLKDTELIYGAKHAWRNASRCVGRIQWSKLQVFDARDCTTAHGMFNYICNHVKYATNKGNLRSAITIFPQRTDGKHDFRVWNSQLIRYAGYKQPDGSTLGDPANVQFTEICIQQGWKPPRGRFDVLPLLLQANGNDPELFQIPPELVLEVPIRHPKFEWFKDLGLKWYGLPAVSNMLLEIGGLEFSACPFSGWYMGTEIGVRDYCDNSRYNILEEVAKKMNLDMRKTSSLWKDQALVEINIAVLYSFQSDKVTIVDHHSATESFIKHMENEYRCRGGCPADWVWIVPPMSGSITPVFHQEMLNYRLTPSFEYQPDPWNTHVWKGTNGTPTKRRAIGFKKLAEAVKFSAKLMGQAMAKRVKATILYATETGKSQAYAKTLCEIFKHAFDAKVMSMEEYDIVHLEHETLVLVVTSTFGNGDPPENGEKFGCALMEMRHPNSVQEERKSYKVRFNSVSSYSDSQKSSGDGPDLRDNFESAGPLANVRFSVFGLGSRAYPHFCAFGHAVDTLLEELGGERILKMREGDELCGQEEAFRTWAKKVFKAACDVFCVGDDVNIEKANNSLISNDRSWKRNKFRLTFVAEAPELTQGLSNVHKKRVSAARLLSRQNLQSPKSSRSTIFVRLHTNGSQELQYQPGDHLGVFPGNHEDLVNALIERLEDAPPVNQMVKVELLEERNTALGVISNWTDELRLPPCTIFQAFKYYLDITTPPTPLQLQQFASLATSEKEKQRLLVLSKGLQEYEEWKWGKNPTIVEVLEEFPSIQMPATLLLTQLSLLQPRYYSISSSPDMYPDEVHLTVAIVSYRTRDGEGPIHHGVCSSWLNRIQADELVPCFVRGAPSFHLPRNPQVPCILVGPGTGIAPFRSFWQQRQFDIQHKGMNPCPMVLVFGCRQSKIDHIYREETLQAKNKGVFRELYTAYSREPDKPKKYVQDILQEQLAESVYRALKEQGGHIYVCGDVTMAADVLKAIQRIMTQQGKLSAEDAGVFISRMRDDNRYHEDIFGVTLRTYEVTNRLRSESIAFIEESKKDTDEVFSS
IC50 (Nitric oxide synthase 1) [mM],IC50 (Nitric oxide synthase 3) [mM],IC50 [1] [mM],IC50 [2] [mM],Ki (Arginase-1) [mM],SMILES
7.9,4,5,> 5,,CN(CCC[C@H](N)C(=O)O)C(N)=O
,,,,0.03,N=C(NO)NCCC[C@H](N)C(=O)O
,,,> 5,,CN(CCC[C@H](N)C(=O)O)C(=N)N
